The target of test [1] is QSOX1 5′UTR hairpin (model of the QSOX1-a binding site). Put plainly: In vitro binding by fluorescence polarization, Cy5-labeled WT RNA. Set-up: species or system human. As for the experimental part:
In Vitro Binding by Measuring Changes in Fluorescence Polarization. Cy5-labeled RNA was folded by heating at 95° C. for 2 min in 1× Folding Buffer and cooled on ice. Serial dilutions of F1 (200 to 0.4 μM, 1:1 dilutions) were prepared in 1× Folding Buffer with 4% (w/v) bovine serum albumin (BSA) with constant DMSO concentration (2% v/v). The compound solutions (10 μL) were added to a well of non-binding 384-well plate (Corning). An equal volume of folded RNA was adding to each well with a final concentration of 50 nM. The samples were incubated at room temperature for 30 min, and then fluorescence polarization was measured with a Molecular Devices SpectraMax M5 plate reader with an excitation wavelength of 640 nm and an emission wavelength of 680 nm.
(In general: Polarisation of emitted light reports the rotation of a fluorescent probe.)

Test [2] relates to MDA-MB-231 cells. Put plainly: Invasion assay. The class given is cell-based, human. As to conditions: 48 h. As for the experimental part: Invasion Assay. MDA-MB-231 cells were seeded in […] and treated with compound or transfected by ASO for 48 h as described in Cell Culture. After treatment for 48 h, the medium was replaced with fresh medium that contains same concentration of compound but lacking FBS for 8 h (serum starvation). ThinCert (GBO) 24-well inserts with 8 μm pores were coated with 100 μL of 0.5 mg/mL Matrigel (Fisher Scientific: CB40234) per well, and then cells were added into the insert (50,000 cells per well). Fresh growth medium with FBS was added to a 24-well plate (600 μL each well), and the inserts containing cells were placed on the top, allowing medium to cover the bottom of the insert. After 16 h, all medium was removed, and cells were washed by 1×DPBS twice. Cells were then fixed with 3% (w/v) paraformaldehyde (PFA) in 1×DPBS at room temperature for 30 min, followed by staining with Crystal Violet (10 mg/mL; 4:1H2O:MeOH) at room temperature for 20 min. A cotton swab was used to gently remove non-invasive cells on sitting on top of the Matrigel. The inserts were then imaged under a regular optical microscope (3 views per well), and the number of invasive cells were counted manually.

The target in test [3] is T1, RNase L (Homo sapiens, UniProt Q05823).
T1 sequence (Q05823 1-741): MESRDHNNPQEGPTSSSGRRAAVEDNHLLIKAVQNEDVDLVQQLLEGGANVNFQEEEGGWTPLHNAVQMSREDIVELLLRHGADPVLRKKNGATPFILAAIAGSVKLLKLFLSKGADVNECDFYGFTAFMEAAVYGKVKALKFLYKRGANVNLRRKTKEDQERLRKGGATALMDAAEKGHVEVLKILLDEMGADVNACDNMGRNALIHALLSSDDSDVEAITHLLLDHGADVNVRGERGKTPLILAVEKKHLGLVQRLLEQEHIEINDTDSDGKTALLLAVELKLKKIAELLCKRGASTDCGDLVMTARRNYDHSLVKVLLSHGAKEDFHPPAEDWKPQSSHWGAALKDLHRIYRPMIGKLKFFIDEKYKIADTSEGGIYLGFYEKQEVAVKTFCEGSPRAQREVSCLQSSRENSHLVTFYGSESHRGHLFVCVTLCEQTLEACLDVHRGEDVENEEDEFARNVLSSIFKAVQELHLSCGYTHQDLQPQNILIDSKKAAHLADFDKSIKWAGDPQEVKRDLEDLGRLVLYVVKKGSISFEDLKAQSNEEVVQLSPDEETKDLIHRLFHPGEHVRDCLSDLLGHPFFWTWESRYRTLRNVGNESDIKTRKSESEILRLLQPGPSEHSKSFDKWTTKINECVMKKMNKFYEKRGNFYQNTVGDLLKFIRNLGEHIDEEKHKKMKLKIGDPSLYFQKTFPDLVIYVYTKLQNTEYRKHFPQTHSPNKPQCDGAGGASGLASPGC
Particulars: versus the RNase L recruiting module of F1-RIBOTAC; cited from earlier work.

For test [4], the system named is QSOX1-a protein. Briefly: QSOX1-a protein abundance by Western blotting in MDA-MB-231 cells. Particulars: 20 μM. The class given is cell-based, human. As for the experimental part: (§1) Measuring Protein Abundance by Western Blotting. MDA-MB-231 cells were seeded in 6-well plates at ˜50% confluency and treated with vehicle (DMSO) or compound as described above but without EU treatment. After 16 h, the compound-containing growth medium was removed and replaced with fresh medium containing compound (re-dosing). After an additional 32 h incubation, total protein was harvested (48 h total treatment time). The cells were then washed twice with cold 1×DPBS, and total protein was harvested by using Mammalian Protein Extraction Reagent (M-PER, Thermo Scientific) per the manufacturer's protocol. Protein concentration was quantified by using BCA Protein Assay Kit (Pierce), and the proteins were separated by using 10% SDS-polyacrylamide gel (20 μg protein per lane). After gel electrophoresis in 1× Running Buffer (50 mM MOPS, 50 mM Tris-base, pH 7.5, 1 mM EDTA, and 0.1% (w/v) SDS) at 120 V for 1 h, the proteins were transferred to a PVDF membrane (0.45 μm, Cytiva) at 300 mA for 1 h in 1× Transfer Buffer (25 mM Bicine, 25 mM Tris-base, pH 7.5, 1:4 MeOH:H2O). The membrane was blocked with 5% (w/v) non-fat dry milk in TBST (1×TBS containing 0.1% (v/v) Tween-20) for 1 h at room temperature. The primary antibody for QSOX1 protein (Cat #10092-932, Proteintech) or SQSTM1 protein (Cat #ab 109012, Abcam) was incubated with 1:1000 dilutions at 4° C. for 16 h. The membrane was then washed by TBST four times (5 min each) and then incubated with the secondary antibody (Cat #7074S, Cell Signaling) with 1:5000 dilution at room temperature for 2 h. The membrane was washed with TBST four times (5 min each) and imaged by using a SuperSignal West Pico Chemiluminescent Substrate (Pierce) per manufacturer's protocol. The blot was stripped by washing the membrane in 1× Stripping Buffer (200 mM glycine, pH 2.2, 4 mM SDS, 1% (v/v) Tween 20) at room temperature for 30 min, followed by blocking again as described above. […] Expression levels of proteins were quantified based on band intensity by using ImageJ. […]
For orientation: Immunoblotting shows a protein as a band on a membrane.

The test system of test [5] is SQSTM1 protein. Put plainly: SQSTM1 protein abundance by Western blotting in MDA-MB-231 cells. The class given is cell-based, human. Particulars: F1-Amide 20 μM, F1-RIBOTAC 10 μM, 48 h. On the procedure:
as §1, with “temperature.” for “temperature. The primary antibody for QSOX1 protein (Cat #10092-932, Proteintech) or SQSTM1 protein (Cat #ab 109012, Abcam) was incubated with 1:1000 dilutions at 4° C. for 16 h. The membrane was then washed by TBST four times (5 min each) and then incubated with the secondary antibody (Cat #7074S, Cell Signaling) with 1:5000 dilution at room temperature for 2 h. The membrane was washed with TBST four times (5 min each) and imaged by using a SuperSignal West Pico Chemiluminescent Substrate (Pierce) per manufacturer's protocol. The blot was stripped by washing the membrane in 1× Stripping Buffer (200 mM glycine, pH 2.2, 4 mM SDS, 1% (v/v) Tween 20) at room temperature for 30 min, followed by blocking again as described above.”

Test [6] relates to MDA-MB-231 cells. Briefly: Proliferation assay. Type of test: cell-based, human. Particulars: 48 h treatment. As for the experimental part: Proliferation Assay. MDA-MB-231 cells were seeded in 96-well plates (Corning) at ˜40% confluency and treated with compound or transfected with ASO as described in Cell Culture. Compound was replenished every 16 h by replacing all the growth medium with freshly prepared medium containing same concentration of compounds. After 48 h total treatment period, proliferation was measured by using CellTiter 96 AQueous One Solution Cell Proliferation Assay (Cat #G3582, Promega) per manufacturer's protocol.

In test [7] the test system is wild type (WT) QSOX1 5′ UTR RNA hairpin. Briefly: In vitro Chem-CLIP and competitive Chem-CLIP with Cy5-labeled WT RNA. Type of test: binding, human. As to conditions: constant concentration of F1, increasing competitor. As for the experimental part: In Vitro Chemical-Crosslinking and Isolation by Pull-down (Chem-CLIP) with Fluorescently Labeled RNA. Cy5-labeled RNA (100 μL, 2 μM) was folded by heating at 95° C. for 2 min in 1× Folding Buffer and cooled on ice. The RNA was then mixed with F1 at the indicated concentrations. The sample was irradiated with UV light (365 nm) for 15 min and then added to 100 μL of azide-disulfide agarose beads (Click Chemistry Tools, 1238-2) pre-washed with 200 μL of 25 mM HEPES, pH 7.0. A click reaction solution was prepared by mixing 30 μL of 250 mM sodium ascorbate, 30 μL of 10 mM CuSO4, and 30 μL of 50 mM THPTA, which was added to the sample. The sample was incubated while rotating at 37° C. for 2 h, briefly centrifuged, and then the supernatant was decanted. The beads were washed six times with 1× Washing Buffer (10 mM Tris-HCl, pH 7, 4 M NaCl, 1 mM EDTA, and 0.05% (v/v) Tween-20) following by incubation with 1× Releasing Buffer (50 mM TCEP and 100 mM K2CO3) at 37° C. for 30 min. An equivalent of iodoacetamide (200 mM) was added to the sample, which was incubated at 37° C. for an additional 30 min. The sample was briefly centrifuged and supernatant containing RNA was carefully transferred to a clean tube. Cy-5 fluorescence in the supernatant was measured with a Molecular Devices SpectraMax M5 plate reader with an excitation wavelength of 640 nm and an emission wavelength of 680 nm. For competitive Chem-CLIP, F1-RIBOTAC was added to the folded the RNA and incubated at room temperature for 15 min prior to the addition of F1. Pull-down was then completed as described above.

In test [8] the test system is WT model of the QSOX1-a hairpin structure. Briefly: Optical melting, WT model RNA. Type of test: binding, human. On the procedure:
(§2) Optical Melting Experiments. The thermal stability of WT and mutant model RNAs in the presence and absence of F1-Amide was measured by optical melting. The RNA ([…]) was prepared in 1× Melting Buffer (8 mM Na2HPO4, pH 7, 10 mM NaCl, and 1 mM EDTA) and heated to 95° C. followed by cooling on ice. F1-Amide was added to the final concentration of 2 mM; an equal volume of DMSO was added to the vehicle sample. The absorbance of the solution at 260 nm was measured by a Beckman Coulter DU800 spectrophotometer as a function of temperature, from 12° C. to 85° C. at a rate of 1° C./min. The background absorbance of buffer with DMSO or compound was subtracted before fitting the curve with MeltWin (v3.5)^7 to determine the melting temperature (Tm) and the Gibbs free energy (ΔG37° C.).

In test [9] the test system is mutant RNA (U-bulge mutated to U/A base pair). Put plainly: Optical melting, mutant model RNA. Type of test: binding. On the procedure: as §2
Setting [10] is: upon addition of small molecule.

In the case of `CCOC(=O)C1=C(Nc2ccccc2)S/C(=C\c2ccc(O)c(OCCOCCOCCOCCNC(=O)CCC(=O)N(C)[C@H]3CC[C@@H](c4ccc(Cl)c(Cl)c4)c4ccccc43)c2)C1=O` [Compound F1-CTRL], binding in [1] was put at a Kd of 10 ± 3 µM. For the same compound, the effect on invasion entry in test [2] is listed as “no significant effect”. The “reduction of RNase L recruiting activity” value in [3] was over 20 fold. Also, in test [4], the “reduction of QSOX1-a protein” value is about 15%.

For the compound `CCCNC(=O)CCC(=O)N(C)[C@H]1CC[C@@H](c2ccc(Cl)c(Cl)c2)c2ccccc21` [Compound F1-Amide], in test [5], the “effect on SQSTM1 protein levels” value is “Neither”. This compound also showed an equilibrium dissociation constant (Kd) in test [1] of 26 ± 9 µM. Moreover, the “effect on proliferation of MDA-MB-231 cells” value in test [6] was “dose-dependently reduced proliferation”. For the same compound, in test [7], the “competition of F1 cross-linking to the QSOX1-a target site (competitive Chem-CLIP)” value is “dose-dependently competed off”. In test [8] (RNA alone 51.8), the “Tm of WT model RNA upon addition of compound” value came out at 53.7 °C. Besides, the “ΔG37° C. of WT model RNA upon addition of compound” value in [8] (RNA alone −2.7) is -3.0 kcal/mol. In [8] (setting [10]), the “decrease of DG°37” value came to 0.3 kcal/mol and the “increase of melting temperature (Tm)” value is 1.9 °C. For the same compound, the “effect on Tm or ΔG37° C. of mutant RNA” value in [9] is reported as “No significant effect”. For the same compound, the effect on invasion entry in [2] was “no significant effect”. In test [4], the “reduction of QSOX1-a protein” value is reported as about 15%.

As usually defined, the Kd is the equilibrium constant for the complex coming apart.

The values above are taken from patent US20250346943A1, “DEGRADER COMPOUNDS OF QSOX1 mRNA” (UNIVERSITY OF FLORIDA RESEARCH FOUNDATION, INCORPORATED, priority 2022, published 2025).
